Legend:
strain MNH22004 = assay: Antibiotic sensitivity test, disk diffusion method; format: cell-based, Megasphaera sp.
Experimental: (§1) Antibiotic sensitivity tests of the strains MNH05026, MNH22004, and MNH27256: Antibiotic sensitivity tests were carried out on the strains MNH05026, MNH22004, and MNH27256 by a disk diffusion method.

strain MNH27256 = assay: Antibiotic sensitivity test, disk diffusion method; format: cell-based, Megasphaera sp.
Experimental: as §1

strain MNH05026 = assay: Antibiotic sensitivity test, disk diffusion method; format: cell-based, Megasphaera sp.
Experimental: as §1

[1] = system: mice with NAFLD/NASH induced by a high-fat, high-carbohydrate, and high-cholesterol diet; assay: NAFLD/NASH mouse model (high-fat, high-carbohydrate, high-cholesterol diet), strains combined with Semaglutide (Example 9); format: in vivo, C57BL/6J mice
Experimental: 3) Controls: PBS-Cys containing 25% glycerol PBS-Cys was used as a negative control; and Semaglutide was used as a positive control.
Administration was initiated after the grouping (D1). The negative control group was given the negative control (PBS-Cys) by gavage, 0.2 mL/mouse, twice a day; the positive control group was given Semaglutide by subcutaneous injection, at a dose of 30 nmol/kg, once every 3 days; and the combined treatment group was given Semaglutide (at a dose and frequency of use the same as those in the positive control group) and the corresponding bacterial solution (0.2 mL/mouse, twice a day) by gavage. The experimental period was 60 days. […] During the experiment, one general clinical observation was conducted after the end of each dosing. The animals were weighed twice a week during the dosing, and before dissection at the experimental endpoint. The endpoint of this experiment was the day following the end of dosing (D61). The animals were dissected and sampled according to the protocol at the experimental endpoint, and the data were summarized to analyze the results. […] Statistical analysis was performed using One-Way ANOVA with Dunnett's multiple comparison test.
Relevant experiments were conducted for the strains MNH05026, MNH22004, and MNH27256 using the methods as described in 1) to 4) above.

Q: Which results are given for `CC1(C)S[C@@H]2[C@H](NC(=O)[C@H](N)c3ccccc3)C(=O)N2[C@H]1C(=O)O` [Ampicillin]?
A: Sensitivity or resistance of strain MNH22004 to the antibiotic (strain MNH22004): resistant; Sensitivity or resistance of strain MNH27256 to the antibiotic (strain MNH27256): resistant; Sensitivity or resistance of strain MNH05026 to the antibiotic (strain MNH05026): sensitive

Q: For `CO/N=C(\C(=O)N[C@@H]1C(=O)N2C(C(=O)O)=C(CSc3nc(=O)c(=O)[nH]n3C)CS[C@H]12)c1csc(N)n1` [Ceftriaxone], which “Sensitivity or resistance of strain MNH22004 to the antibiotic” value (strain MNH22004) is on record?
A: sensitive

Q: What about the “Sensitivity or resistance of strain MNH27256 to the antibiotic” value (strain MNH27256) of the same compound?
A: resistant

Q: And the “Sensitivity or resistance of strain MNH05026 to the antibiotic” value (strain MNH05026)?
A: sensitive

Q: What does the source list for `O=C(N[C@H](CO)[C@H](O)c1ccc([N+](=O)[O-])cc1)C(Cl)Cl` [Chloramphenicol]?
A: Sensitivity or resistance of strain MNH22004 to the antibiotic (strain MNH22004): sensitive; Sensitivity or resistance of strain MNH27256 to the antibiotic (strain MNH27256): sensitive; Sensitivity or resistance of strain MNH05026 to the antibiotic (strain MNH05026): sensitive

Q: `O=C(O)c1cn(C2CC2)c2cc(N3CCNCC3)c(F)cc2c1=O` [Ciprofloxacin] was tested. Which “Sensitivity or resistance of strain MNH22004 to the antibiotic” value (strain MNH22004) did it give?
A: sensitive

Q: And the “Sensitivity or resistance of strain MNH27256 to the antibiotic” value (strain MNH27256)?
A: sensitive

Q: And the “Sensitivity or resistance of strain MNH05026 to the antibiotic” value (strain MNH05026)?
A: sensitive

Q: What does the source list for `CC[C@H]1OC(=O)[C@H](C)[C@@H](O[C@H]2C[C@@](C)(OC)[C@@H](O)[C@H](C)O2)[C@H](C)[C@@H](O[C@@H]2O[C@H](C)C[C@H](N(C)C)[C@H]2O)[C@](C)(O)C[C@@H](C)C(=O)[C@H](C)[C@@H](O)[C@]1(C)O` [Erythromycin]?
A: Sensitivity or resistance of strain MNH22004 to the antibiotic (strain MNH22004): sensitive; Sensitivity or resistance of strain MNH27256 to the antibiotic (strain MNH27256): sensitive; Sensitivity or resistance of strain MNH05026 to the antibiotic (strain MNH05026): sensitive

Q: What does the source list for `CCC[C@@H]1C[C@@H](C(=O)N[C@@H]([C@H]2O[C@H](SC)[C@H](O)[C@@H](O)[C@H]2O)[C@@H](C)O)N(C)C1` [Lincomycin]?
A: Sensitivity or resistance of strain MNH22004 to the antibiotic (strain MNH22004): sensitive; Sensitivity or resistance of strain MNH27256 to the antibiotic (strain MNH27256): sensitive; Sensitivity or resistance of strain MNH05026 to the antibiotic (strain MNH05026): sensitive

Q: For Gentamicin, which “Diameter of inhibition zone by MNH22004” value (strain MNH22004) is on record?
A: 9.00 mm

Q: And the “Sensitivity or resistance of strain MNH22004 to the antibiotic” value (strain MNH22004)?
A: sensitive

Q: What about the “Sensitivity or resistance of strain MNH27256 to the antibiotic” value (strain MNH27256) of the same compound?
A: sensitive

Q: And the “Sensitivity or resistance of strain MNH05026 to the antibiotic” value (strain MNH05026)?
A: sensitive

Q: How did the “Diameter of inhibition zone by MNH22004” value (strain MNH22004) turn out when Penicillin was run?
A: 0 mm

Q: What about the “Sensitivity or resistance of strain MNH22004 to the antibiotic” value (strain MNH22004) of the same compound?
A: resistant

Q: What about the “Diameter of inhibition zone by MNH27256” value (strain MNH27256) of the same compound?
A: 0 mm

Q: What about the “Sensitivity or resistance of strain MNH27256 to the antibiotic” value (strain MNH27256) of the same compound?
A: resistant

Q: What about the “Sensitivity or resistance of strain MNH05026 to the antibiotic” value (strain MNH05026) of the same compound?
A: sensitive

Q: How did the fasting blood glucose ([1]; Day 30 of oral glucose tolerance test) turn out when Semaglutide was run?
A: no significant effect

Q: And the “body weight, 1 d” value ([1]; day 1, in g (unit assumed))?
A: 45.97

Q: And the “body weight, 33 d” value ([1]; day 33, in g (unit assumed))?
A: 36.18

Q: And the weight gain value ([1]; day 33 of intervention)?
A: −21.30%

Q: And the “body weight, 36 d” value ([1]; day 36, in g (unit assumed))?
A: 35.94

Q: What about the “body weight, 41 d” value ([1]; day 41, in g (unit assumed)) of the same compound?
A: 35.98

Q: And the “body weight, 44 d” value ([1]; day 44, in g (unit assumed))?
A: 36.34

Q: What about the “body weight, 48 d” value ([1]; day 48, in g (unit assumed)) of the same compound?
A: 37.02

Q: What about the “body weight, 51 d” value ([1]; day 51, in g (unit assumed)) of the same compound?
A: 37.26

Q: And the “body weight, 54 d” value ([1]; day 54, in g (unit assumed))?
A: 36.84

Q: And the “body weight, 58 d” value ([1]; day 58, in g (unit assumed))?
A: 38.09

Q: What about the “body weight, 60 d” value ([1]; day 60, in g (unit assumed)) of the same compound?
A: 36.67

Q: Which results are given for Trimethoprim-sulfamethoxazole?
A: Sensitivity or resistance of strain MNH22004 to the antibiotic (strain MNH22004): sensitive; Sensitivity or resistance of strain MNH27256 to the antibiotic (strain MNH27256): sensitive; Sensitivity or resistance of strain MNH05026 to the antibiotic (strain MNH05026): sensitive

Reference: patent US20250332201A1, “PHARMACEUTICAL COMPOSITION, MEGASPHAERA, AND USE THEREOF” (MOON (GUANGZHOU) BIOTECH CO., LTD., priority 2022, published 2025)
